Results: publication PMC7427733, “Novel xylose transporter Cs4130 expands the sugar uptake repertoire in recombinant Saccharomyces cerevisiae strains at high xylose concentrations” (Biotechnology for Biofuels, 2020)

How the values were obtained:
Gxf1 [1] = molecular target: T1, Gxf1 (Sungouiella intermedia, UniProt Q2MDH1); experiment: growth complementation (spot assay) and sugar consumption (HPLC) in transporter-null yeast; type: cell-based; settings: S. cerevisiae EBY_Xyl1, 30 °C, 20 g/L glucose spot assay; 10 g/L glucose with 10 g/L xylose in fermentation; uptake inferred
T1 sequence (Q2MDH1 1-547): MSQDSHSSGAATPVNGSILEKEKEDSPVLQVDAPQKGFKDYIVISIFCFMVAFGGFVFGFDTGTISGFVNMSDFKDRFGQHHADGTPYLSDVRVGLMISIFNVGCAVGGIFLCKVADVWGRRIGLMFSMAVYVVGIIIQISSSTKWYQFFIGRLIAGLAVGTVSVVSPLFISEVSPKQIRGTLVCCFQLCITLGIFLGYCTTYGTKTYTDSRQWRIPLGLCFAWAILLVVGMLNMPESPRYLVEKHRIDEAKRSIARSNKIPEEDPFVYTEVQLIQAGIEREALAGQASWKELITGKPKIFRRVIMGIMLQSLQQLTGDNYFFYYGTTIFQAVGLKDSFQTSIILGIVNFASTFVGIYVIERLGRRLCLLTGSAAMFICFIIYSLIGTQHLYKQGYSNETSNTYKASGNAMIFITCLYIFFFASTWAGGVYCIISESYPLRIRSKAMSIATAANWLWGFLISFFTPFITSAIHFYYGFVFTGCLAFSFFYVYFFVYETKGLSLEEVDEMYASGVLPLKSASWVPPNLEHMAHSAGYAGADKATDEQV

Gxf1 [2] = molecular target: T1, Gxf1; experiment: as above; type: cell-based; settings: S. cerevisiae EBY_Xyl1, 30 °C, xylose 5-50 g/L; uptake inferred

Structure (SMILES) | growth complementation (spot assay) and sugar consumption (HPLC) in transporter- (Gxf1 [1]) | growth complementation (spot assay) and sugar consumption (HPLC) in transporter- (Gxf1 [2])
OC[C@H]1OC(O)[C@H](O)[C@@H](O)[C@@H]1O (some centres unmarked) [glucose] | Cs3894 and Gxf1 were able to support better and similar patterns of growth on glucose | 
OC1OC[C@@H](O)[C@H](O)[C@H]1O (some centres unmarked) [xylose] |  | The facilitator Gxf1 restored growth in all xylose concentrations evaluated
